These results are taken from article PMC5622079, “Control of leucine-dependent mTORC1 pathway through chemical intervention of leucyl-tRNA synthetase and RagD interaction” (Nature Communications, 2017).

The term Kd denotes the constant that tells how readily two partners part at equilibrium. High values mean weaker binding, low ones tighter binding.

Experiment [1] concerns the target T1, Leucyl-tRNA synthetase (LRS) (Homo sapiens, UniProt Q9P2J5). Kind of experiment: SPR (Biacore T-200, immobilised His-LRS). Format: binding. More on the design: gene LARS1; His-LRS WT. (In general: In SPR one partner is held on a chip, and binding of the other changes the refractive index at the surface.)
Experiment [2] concerns the target T1, Leucyl-tRNA synthetase (LRS). Kind of experiment: HDX-MS (with BC-LI-0198) and thermal shift. More on the design: gene LARS1; human full-length LRS, N-terminal His9-tag. In kind it is binding.

T1 sequence (Q9P2J5 whole entry): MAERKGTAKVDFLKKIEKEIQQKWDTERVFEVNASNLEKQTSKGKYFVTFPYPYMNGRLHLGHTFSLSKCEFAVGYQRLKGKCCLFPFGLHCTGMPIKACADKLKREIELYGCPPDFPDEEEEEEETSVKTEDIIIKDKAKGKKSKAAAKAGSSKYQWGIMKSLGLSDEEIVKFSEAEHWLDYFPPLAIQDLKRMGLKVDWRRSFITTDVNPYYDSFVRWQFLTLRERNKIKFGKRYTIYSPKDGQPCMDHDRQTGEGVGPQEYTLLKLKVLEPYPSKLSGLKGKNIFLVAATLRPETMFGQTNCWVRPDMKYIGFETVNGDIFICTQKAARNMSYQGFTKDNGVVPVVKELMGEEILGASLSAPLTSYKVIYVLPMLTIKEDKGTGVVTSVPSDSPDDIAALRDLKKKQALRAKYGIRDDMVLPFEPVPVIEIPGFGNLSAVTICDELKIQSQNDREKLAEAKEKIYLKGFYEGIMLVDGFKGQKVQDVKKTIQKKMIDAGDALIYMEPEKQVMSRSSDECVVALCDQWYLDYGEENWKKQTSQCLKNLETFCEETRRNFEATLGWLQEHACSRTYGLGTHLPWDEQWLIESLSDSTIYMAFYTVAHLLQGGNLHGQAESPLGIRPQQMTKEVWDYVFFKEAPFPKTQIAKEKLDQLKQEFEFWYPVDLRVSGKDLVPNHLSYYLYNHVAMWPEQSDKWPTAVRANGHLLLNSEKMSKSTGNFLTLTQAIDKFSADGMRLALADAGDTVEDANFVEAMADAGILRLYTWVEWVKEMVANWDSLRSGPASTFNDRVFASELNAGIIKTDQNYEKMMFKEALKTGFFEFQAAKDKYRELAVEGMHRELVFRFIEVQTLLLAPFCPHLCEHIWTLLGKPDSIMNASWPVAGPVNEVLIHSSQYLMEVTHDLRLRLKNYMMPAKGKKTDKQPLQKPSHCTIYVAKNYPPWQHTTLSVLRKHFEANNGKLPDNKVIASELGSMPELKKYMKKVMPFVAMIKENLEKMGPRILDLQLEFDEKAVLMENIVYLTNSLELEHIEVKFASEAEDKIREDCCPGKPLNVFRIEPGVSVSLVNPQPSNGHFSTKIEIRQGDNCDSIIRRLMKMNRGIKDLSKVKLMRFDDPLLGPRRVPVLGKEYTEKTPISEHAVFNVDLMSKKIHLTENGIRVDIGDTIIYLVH

Regarding `Cc1c(C(C)C)c(=O)n(-c2ccc(S(=O)(=O)NCCOc3ccccc3)cc2)n1C` [BC-LI-0186], the Kd in experiment [1] was 42.1 nM. In other words, the double-digit nanomolar range. Consider `CC(C)C[C@H](N)C(=O)NS(=O)(=O)OC[C@H]1O[C@@H](n2cnc3c(N)ncnc32)[C@H](O)[C@@H]1O` [Leu-AMS], for which the “HDX-MS (with BC-LI-0198) and thermal shift” value in experiment [2] is “HDX)-MS assays for LRS bound to BC-LI-0198 and Leu-AMS, a leucyl-sulfamoyl-adenylate analog of leucyl adenylate”.
